In publication PMC12500856 (Nature Communications, 2025):
Blank lines part the entries; values can stand above or below the molecule they belong to.

Tests used:
SgGouE [1] = molecular target: T1, SgGouE (Streptomyces graminearus, UniProt K4HPM3); assay: HPLC turnover assay; type: biochemical; conditions: 50 mM Tris-HCl pH 8.0, 1 mM CMP, 1 mM MgCl2, 30 °C (cascade)
T1 sequence (K4HPM3 1-246): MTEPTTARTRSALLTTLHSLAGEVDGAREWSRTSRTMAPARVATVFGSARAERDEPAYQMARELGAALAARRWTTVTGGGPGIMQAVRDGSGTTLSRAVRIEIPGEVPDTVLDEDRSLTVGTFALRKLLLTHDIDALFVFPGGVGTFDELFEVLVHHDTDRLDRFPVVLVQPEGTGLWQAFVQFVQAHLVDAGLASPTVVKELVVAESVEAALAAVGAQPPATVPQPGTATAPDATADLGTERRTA

SgGouE [2] = molecular target: T1, SgGouE; assay: HPLC turnover assay; type: biochemical
CodA = molecular target: T2, CodA (Escherichia coli, UniProt P25524); assay: HPLC, deamination in cascade; type: biochemical; conditions: 50 mM Tris-HCl pH 8.0, 1 mM MgCl2, 30 °C
T2 sequence (P25524 2-427): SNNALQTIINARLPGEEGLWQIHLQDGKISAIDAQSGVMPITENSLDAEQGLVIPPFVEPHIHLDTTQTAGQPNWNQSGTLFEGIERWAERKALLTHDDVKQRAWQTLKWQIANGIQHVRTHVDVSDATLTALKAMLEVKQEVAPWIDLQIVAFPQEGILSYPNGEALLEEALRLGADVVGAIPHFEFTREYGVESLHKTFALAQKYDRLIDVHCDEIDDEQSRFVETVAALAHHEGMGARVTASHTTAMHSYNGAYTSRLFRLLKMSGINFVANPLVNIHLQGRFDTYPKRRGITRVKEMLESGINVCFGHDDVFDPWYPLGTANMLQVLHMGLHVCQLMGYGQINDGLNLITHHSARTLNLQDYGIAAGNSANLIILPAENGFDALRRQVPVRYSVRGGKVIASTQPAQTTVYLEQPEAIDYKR

HDHD1 = HDHD1 (Homo sapiens, UniProt Q08623); assay: in vitro competition assay, dephosphorylation; type: biochemical; conditions: competition with UMP
PhoA = PhoA (Escherichia coli, UniProt P00634); assay: HPLC, dephosphorylation in cascade; type: biochemical; conditions: 50 mM Tris-HCl pH 8.0, 1 mM MgCl2, 30 °C
[3] = substrate: O=c1ccn([C@@H]2O[C@H](COP(=O)(O)O)[C@@H](O)[C@H]2O)c(=O)[nH]1; assay: kinetic analysis of UMP hydrolysis; type: biochemical, Neisseria meningitidis

Chain of HDHD1 (Q08623 whole entry): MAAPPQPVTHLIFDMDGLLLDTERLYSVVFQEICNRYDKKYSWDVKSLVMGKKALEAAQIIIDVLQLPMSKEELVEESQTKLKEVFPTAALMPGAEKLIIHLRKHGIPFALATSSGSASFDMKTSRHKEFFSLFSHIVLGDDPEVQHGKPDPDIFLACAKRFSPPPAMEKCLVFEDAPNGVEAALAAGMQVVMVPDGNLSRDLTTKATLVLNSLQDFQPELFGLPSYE
Chain of PhoA (P00634 22-471): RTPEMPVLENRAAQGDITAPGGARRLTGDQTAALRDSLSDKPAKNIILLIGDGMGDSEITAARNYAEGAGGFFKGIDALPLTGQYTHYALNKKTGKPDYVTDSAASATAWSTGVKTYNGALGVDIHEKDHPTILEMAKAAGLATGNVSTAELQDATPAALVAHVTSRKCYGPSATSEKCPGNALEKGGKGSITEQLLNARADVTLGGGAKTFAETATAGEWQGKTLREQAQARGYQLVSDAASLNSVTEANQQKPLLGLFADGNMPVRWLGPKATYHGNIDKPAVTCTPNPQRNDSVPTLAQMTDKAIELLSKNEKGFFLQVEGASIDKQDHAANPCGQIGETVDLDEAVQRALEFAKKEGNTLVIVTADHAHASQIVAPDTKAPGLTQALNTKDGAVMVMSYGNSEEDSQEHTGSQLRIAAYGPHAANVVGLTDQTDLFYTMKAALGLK

Molecule: Nc1ccn([C@@H]2O[C@H](COP(=O)(O)O)[C@@H](O)[C@H]2O)c(=O)n1 [CMP]
HPLC turnover assay (SgGouE [1]): we found that SgGouE indicates the most superior performance

relative efficiency (SgGouE [2]): 50%
Molecule: O=c1ccn([C@@H]2O[C@H](COP(=O)(O)O)[C@@H](O)[C@H]2O)c(=O)[nH]1 [UMP]

Molecule: Nc1cc[nH]c(=O)n1 [cytosine]
HPLC, deamination in cascade (CodA): cytosine can be easily deaminated by CodA (deaminase)

Molecule: O=c1[nH]cc([C@@H]2O[C@H](COP(=O)(O)O)[C@@H](O)[C@H]2O)c(=O)[nH]1 [ΨMP]
in vitro competition assay, dephosphorylation (HDHD1): HDHD1 has prominent specificity and activity against the latter substrate
HPLC, dephosphorylation in cascade (PhoA): the phosphatase PhoA was utilized for the dephosphorylation of ΨMP for related assays

B1: NmYgdH (Neisseria meningitidis MC58) (protein)
chain: MENTNRVPEQARYDAERRQADEALAGVFPAVSIFGSARTPQNHADYAFACRLARRLSDSGIAVISGGGPGIMEAANKGAFAGKSVSVGLNIVLPHEQKPNPYQDIALRFSRFAERKAVFFRYSQAYVVMPGGFGTLDELFEILTLVQTGKVPPRPIVLVGKAFWSGLAEWINAQLLARGLISEGAVSLFAISDDEDEIVAYLSEHGLQTA
Km [3]: 11.78 ± 0.81 mM
kcat [3]: 81.90 ± 2.60 s⁻¹
